Test results reported in article PMC7281206, “Cysteine Cathepsins Inhibition Affects Their Expression and Human Renal Cancer Cell Phenotype” (Cancers, 2020).
*: point of attachment. CH2F = FC*

Assays:
Format in all cases: cell-based, human
[1] = test system: 769-P cells (endolysosomal compartment); experiment: LysoTracker red fluorescence, 769-P; details: 20 μM; 48 h; 75 nM LysoTracker red, 1 h, Ex/Em 570/600
Experimental: First, 1.5 × 10^4 769-P or A498 cells were seeded in 96-well plates in full medium. The day after the cells were treated with the peptides for 3 consecutive days to establish 24, 48, and 72 h groups of treatment. LysoTracker Red fluorescence intensity was measured via microplate reader following the protocols described in [75] and applying Ex/Em = 570/600. The cells were incubated with 75 nM of LysoTracker red for 1 h. […]
Figure S6. The effect of the peptide inhibitors on human 769‐P and A498 renal cancer cell on
lysosomes integrity. (a) 769‐P and (b) A498 cells were treated with increasing doses of Ac‐PLVE‐FMK
(red bars) and Ac‐VLPE‐FMK (blue bars) (2.5–250 μM). NR uptake was measured after 24, 48, and 72
h via MTT assay. (c) LysoTracker red evaluation in 769‐P and (d) A498 cells after 24, 48, and 72 h with
the inhibitors (20 μM). Data represent the mean (± S.D.) of at least three independent experiments,
each performed in triplicate. […]

LAMP-1 in A498 cells = experiment: LAMP-1 protein expression (western blot, confocal microscopy), A498; details: 20 μM
Experimental: Figure 7 Effect of the peptides on LAMP-1 protein expression: (a) Western blotting analysis of LAMP-1 after treatment with PLVE and VLPE (20 μM) for 24, 48, and 72 h in 769-P cells. (b) Confocal microscopy evaluation of LAMP-1 expression after 48 and 72 h of treatment with PLVE and VLPE (20 μM) in 769-P cells. (c) Western blotting analysis of LAMP-1 after treatment with PLVE and VLPE (20 μM) for 24, 48, and 72 h in A498 cells. (d) Confocal microscopy evaluation of LAMP-1 expression after 48 and 72 h of treatment with PLVE and VLPE (20 μM) in A498 cells. Data are represented as mean ± SD of at least three replicates. Significance was calculated through one-way ANOVA followed by Dunnet’s test. * = p < 0.05, ** = p < 0.01, *** = p < 0.001. Cells were seeded in RPMI containing 10% FBS and cultured for 24 h. Next, 30 µM of inhibitors were added to the culture medium and incubated for 24, 48, and 72 h. Control cells were treated with 0.01% DMSO. At all time points the samples were lysed in 50 mM Tri-HCl (pH 8.0), 100 mM NaCl, 0.5% NP-40, 1% Triton X-100, 1× protease inhibitor cocktail (ThermoFisher, Waltham, MA, USA). The 50 µg of protein lysates were separated by electrophoresis on a 12% SDS-PAGE gel and transferred to the PFDF membranes. The expression of cysteine Cts, LAMP-1, E-cadherin, and SNAIL1 were identified by a reaction with specific primary antibodies (CtsB-Ab190077, Abcam, UK; CtsL-Ab95154, Abcam, UK; CtsW Ab191083; LAMP-1- Ab24170, Abcam, UK; SNAIL1 Ab216347, Abcam, UK and e-cadherin-612131, BD Sciences Franklin Lakes, NJ, USA) which were resuspended in 5% non-fat milk in PBST (all Cts 1:3000, LAMP-1, SNAIL1 and E-cadherin 1:1000) and incubated O/N. The next day, the membranes were washed three times with PBST and incubated for 1 h with secondary antibodies (P-GAR Iss (Goat pAb to rabbit IgG (HRP), Abcam, UK or Rabbit Ab to mouse, Abcam, UK; both 1:5000) in 5% non-fat milk in PBST. After an additional wash (three times with PBS), reactive bands were detected by chemiluminescence (Bio-Rad, Irvine, CA, USA). As a loading control, the membranes were incubated with a polyclonal anti-tubulin antibody (1:5000; Ab52866, Abcam, UK) identically. The cells were treated for 48 and 72 h, then were fixed in 4% PFA/PBS for 15 min and permeabilized in 0.25% Triton®X-100 for 10 min. After blocking the non-specific sites in 2% BSA/PBS-T, the immunofluorescence was performed overnight with primary antibody anti-LAMP-1 (1:100, Abcam, Eugene, OR, USA) incubation, followed by incubation with the appropriate fluorophore-labeled secondary antibody Donkey anti-Rabbit IgG (H+L) ReadyProbes™, Alexa Fluor 488 (1:500; ThermoFisher, USA). […]

[2] = test system: 769-P cells (proteolytic activity); experiment: Cell proteolytic activity towards Ac-PLVQ-AMC, 769-P; details: 30 min peptide, then 10 min Ac-PLVQ-AMC; fluorescence microscopy and fluorimetric analysis
Experimental: To evaluate the inhibitory properties of the peptides directly on the human renal cancer cells, we firstly assessed the impact of Ac-PLVE-FMK and Ac-VLPE-FMK on the cell viability of 769-P and A498 cells to determine the working concentrations for further experiments. […] Further experiments were performed using a concentration of 20 μM. To understand if the peptides could affect the activity of caspase proteases, we tested their effect on cell viability in combination with the chemotherapeutic paclitaxel (PXT) in both the cell lines. […] Next, we evaluated the effect of the peptides on renal cancer cell proteolytic activity against the fluorogenic probe Ac-PLVQ-AMC. In this case, 769-p and A498 cells were treated for 30 min with Ac-PLVE-FMK or Ac-VLPE-FMK and were then exposed for 10 min to the substrate Ac-PLVQ-AMC prior fluorescence microscopy analysis (Figure 3c,d).
Figure 3 The effect of the peptide inhibitors on human 769-P and A498 renal cancer cell proliferation and proteolytic activity. […] Cell proliferation was measured after 24, 48, and 72 h via MTT (3-(4,5-dimethylthiazol-2-yl)-2,5-diphenyltetrazolium bromide) assay. […] (c) Fluorescence microscopy evaluation and quantification of the cell proteolytic activity in 769-P and (d) A498 cells towards the fluorogenic substrate Ac-PLVQ-AMC in the absence or presence of Ac-PLVE-FMK and Ac-VLPE-FMK. […]

| Substance | LysoTracker red fluorescence [1] | LAMP-1 protein expression (LAMP-1 in A498 cells; 72 h) | LAMP-1 protein expression (LAMP-1 in A498 cells; first 48 h) | Inhibition of probe degradation (cell proteolytic activity) [2] |
| --- | --- | --- | --- | --- |
| Ac-PLVE-CH2F [Ac-PLVE-FMK] | slightly increasing | substantial recovery at 72 h, reaching values slightly higher than CTRL levels | significantly affected during the first 48 h | significantly inhibited the probe degradation |
| Ac-VLPE-CH2F [Ac-VLPE-FMK] | slightly increasing | substantial recovery at 72 h, reaching values slightly higher than CTRL levels | significantly affected during the first 48 h | significantly inhibited the probe degradation |
